Patent US20190209650A1, “METHOD TO IMPROVE THE EFFECTIVENESS OF ANTI-CANCER THERAPIES BY EXPOSING CANCER CELLS TO AN INFLAMMATORY STIMULUS PRIOR TO TREATMENT” (priority 2016, published 2019)

Tested on: SW620 colorectal cancer cell line
Experiment: Flow cytometry of EpCAM positive cells and cancer stem cell (CD44+CD133-) subpopulation after incubation with cytokines
Assay type: cell-based, human
Details: for % Gated, R4 (CD44FITC, CD133 PE) / % Total, R4 (CD44FITC, CD133 PE): population R4 & R14 & R2 & R1; for % Gated, R5 (CD44FITC, CD133 PE) / % Total, R5 (CD44FITC, CD133 PE): population R5 & R14 & R2 & R1; for % Gated, R6 (CD44FITC, CD133 PE) / % Total, R6 (CD44FITC, CD133 PE): population R6 & R14 & R2 & R1; for % Gated, R7 Cancer Stem Cell (CSC) (CD44+CD133-) / % Total, R7 Cancer Stem Cell (CSC) (CD44+CD133-): population R7 & R14 & R2 & R1; for % Gated, R8 (CD44FITC, EpCAMefluor710) / % Total, R8 (CD44FITC, EpCAMefluor710): population R8 & R14 & R2 & R1; for % Gated, R9 EpCAM positive Cells (CD44FITC, EpCAMefluor710) / % Total, R9 EpCAM positive Cells (CD44FITC, EpCAMefluor710): population R9 & R14 & R2 & R1; for % Gated, R10 EpCAM positive Cells (CD44FITC, EpCAMefluor710) / % Total, R10 EpCAM positive Cells (CD44FITC, EpCAMefluor710): population R10 & R14 & R2 & R1; for % Gated, R11 (CD44FITC, EpCAMefluor710) / % Total, R11 (CD44FITC, EpCAMefluor710): population R11 & R14 & R2 & R1
Experimental: This number returned to near baseline 21% at 48 hours. […] This change was transient, occurring within 24 hours and rapidly returning to baseline.
The data from the scatter plots of FIGS. 1A-1H, 2A-2H, and 3A-3H are reproduced below in Tables 1-3.
Based on the above data of potentiating the effectiveness of chemotherapy by exposing cancer cells to specific cytokines such as HGF and or Il-6 within a time limited fashion, the mechanism behind this ability to sensitize cancer cells may not simply be triggering cellular proliferation. Specific cytokine exposures can transiently cause a cancer cell population to differentiate away from a more stem cell enriched, mesenchymal phenotype towards a more differentiated, epithelial cell population more sensitive to the effects of anti-cancer therapies (see Tables 1-3).
In particular, exposure to a control population of SW620 colorectal cancer cell line to HGF at a concentration of 10 ng per ml for 24 hours caused the control putative stem cell population (CD44+/CD133−) to drop from 33% at baseline (see Table 1, R7 region, CD 44 positive/CD133 negative) to 1% (see Table 2, R7, region CD 44 positive/CD133 negative). This drop was transient, as exposure to the same cell line for 48 hours of HGF at 10 ng per ml transitioned the phenotypic distribution back towards a stem cell enriched phenotype with 23% putative stem cells (see Table 3, R7 region, CD 44 positive/CD133 negative).

IL8: cytokine treatment IL8 in Tables 1-3
% Gated, R4 (CD44FITC, CD133 PE) (0 hour incubation): 48.9%
% Total, R4 (CD44FITC, CD133 PE) (0 hour incubation): 40.9%
% Gated, R5 (CD44FITC, CD133 PE) (0 hour incubation): 3.58%
% Total, R5 (CD44FITC, CD133 PE) (0 hour incubation): 2.99%
% Gated, R6 (CD44FITC, CD133 PE) (0 hour incubation): 14.3%
% Total, R6 (CD44FITC, CD133 PE) (0 hour incubation): 12%
% Gated, R7 Cancer Stem Cell (CSC) (CD44+CD133-) (0 hour incubation): 33.5%
% Total, R7 Cancer Stem Cell (CSC) (CD44+CD133-) (0 hour incubation): 28%
% Gated, R8 (CD44FITC, EpCAMefluor710) (0 hour incubation): 3.84%
% Total, R8 (CD44FITC, EpCAMefluor710) (0 hour incubation): 3.21%
% Gated, R9 EpCAM positive Cells (CD44FITC, EpCAMefluor710) (0 hour incubation): 55%
% Total, R9 EpCAM positive Cells (CD44FITC, EpCAMefluor710) (0 hour incubation): 46%
% Gated, R10 EpCAM positive Cells (CD44FITC, EpCAMefluor710) (0 hour incubation): 38.9%
% Total, R10 EpCAM positive Cells (CD44FITC, EpCAMefluor710) (0 hour incubation): 32.6%
% Gated, R11 (CD44FITC, EpCAMefluor710) (0 hour incubation): 1.92%
% Total, R11 (CD44FITC, EpCAMefluor710) (0 hour incubation): 1.6%
% Gated, R4 (CD44FITC, CD133 PE) (24 h incubation): 36.8%
% Total, R4 (CD44FITC, CD133 PE) (24 h incubation): 30%
% Gated, R5 (CD44FITC, CD133 PE) (24 h incubation): 7.29%
% Total, R5 (CD44FITC, CD133 PE) (24 h incubation): 5.93%
% Gated, R6 (CD44FITC, CD133 PE) (24 h incubation): 30.9%
% Total, R6 (CD44FITC, CD133 PE) (24 h incubation): 25.2%
% Gated, R7 Cancer Stem Cell (CSC) (CD44+CD133-) (24 h incubation): 24.5%
% Total, R7 Cancer Stem Cell (CSC) (CD44+CD133-) (24 h incubation): 19.9%
% Gated, R8 (CD44FITC, EpCAMefluor710) (24 h incubation): 1.98%
% Total, R8 (CD44FITC, EpCAMefluor710) (24 h incubation): 1.61%
% Gated, R9 EpCAM positive Cells (CD44FITC, EpCAMefluor710) (24 h incubation): 48.4%
% Total, R9 EpCAM positive Cells (CD44FITC, EpCAMefluor710) (24 h incubation): 39.4%
% Gated, R10 EpCAM positive Cells (CD44FITC, EpCAMefluor710) (24 h incubation): 50.1%
% Total, R10 EpCAM positive Cells (CD44FITC, EpCAMefluor710) (24 h incubation): 40.6%
% Gated, R11 (CD44FITC, EpCAMefluor710) (24 h incubation): 0.34%
% Total, R11 (CD44FITC, EpCAMefluor710) (24 h incubation): 0.27%
% Gated, R4 (CD44FITC, CD133 PE) (48 h incubation): 38.5%
% Total, R4 (CD44FITC, CD133 PE) (48 h incubation): 35.8%
% Gated, R5 (CD44FITC, CD133 PE) (48 h incubation): 6.8%
% Total, R5 (CD44FITC, CD133 PE) (48 h incubation): 6.32%
% Gated, R6 (CD44FITC, CD133 PE) (48 h incubation): 28.5%
% Total, R6 (CD44FITC, CD133 PE) (48 h incubation): 26.5%
% Gated, R7 Cancer Stem Cell (CSC) (CD44+CD133-) (48 h incubation): 26.8%
% Total, R7 Cancer Stem Cell (CSC) (CD44+CD133-) (48 h incubation): 24.9%
% Gated, R8 (CD44FITC, EpCAMefluor710) (48 h incubation): 23.1%
% Total, R8 (CD44FITC, EpCAMefluor710) (48 h incubation): 21.5%
% Gated, R9 EpCAM positive Cells (CD44FITC, EpCAMefluor710) (48 h incubation): 31%
% Total, R9 EpCAM positive Cells (CD44FITC, EpCAMefluor710) (48 h incubation): 28.8%
% Gated, R10 EpCAM positive Cells (CD44FITC, EpCAMefluor710) (48 h incubation): 25.4%
% Total, R10 EpCAM positive Cells (CD44FITC, EpCAMefluor710) (48 h incubation): 23.6%
% Gated, R11 (CD44FITC, EpCAMefluor710) (48 h incubation): 21.4%
% Total, R11 (CD44FITC, EpCAMefluor710) (48 h incubation): 19.9%

PDGF Beta: Platelet derived growth factor BB
% Gated, R4 (CD44FITC, CD133 PE) (0 hour incubation): 49.7%
% Total, R4 (CD44FITC, CD133 PE) (0 hour incubation): 46.5%
% Gated, R5 (CD44FITC, CD133 PE) (0 hour incubation): 2.45%
% Total, R5 (CD44FITC, CD133 PE) (0 hour incubation): 2.29%
% Gated, R6 (CD44FITC, CD133 PE) (0 hour incubation): 10.7%
% Total, R6 (CD44FITC, CD133 PE) (0 hour incubation): 9.97%
% Gated, R7 Cancer Stem Cell (CSC) (CD44+CD133-) (0 hour incubation): 37.3%
% Total, R7 Cancer Stem Cell (CSC) (CD44+CD133-) (0 hour incubation): 34.9%
% Gated, R8 (CD44FITC, EpCAMefluor710) (0 hour incubation): 4.94%
% Total, R8 (CD44FITC, EpCAMefluor710) (0 hour incubation): 4.62%
% Gated, R9 EpCAM positive Cells (CD44FITC, EpCAMefluor710) (0 hour incubation): 53.5%
% Total, R9 EpCAM positive Cells (CD44FITC, EpCAMefluor710) (0 hour incubation): 50%
% Gated, R10 EpCAM positive Cells (CD44FITC, EpCAMefluor710) (0 hour incubation): 38.8%
% Total, R10 EpCAM positive Cells (CD44FITC, EpCAMefluor710) (0 hour incubation): 36.3%
% Gated, R11 (CD44FITC, EpCAMefluor710) (0 hour incubation): 2.33%
% Total, R11 (CD44FITC, EpCAMefluor710) (0 hour incubation): 2.18%
% Gated, R4 (CD44FITC, CD133 PE) (24 h incubation): 36.2%
% Total, R4 (CD44FITC, CD133 PE) (24 h incubation): 32.4%
% Gated, R5 (CD44FITC, CD133 PE) (24 h incubation): 8.6%
% Total, R5 (CD44FITC, CD133 PE) (24 h incubation): 7.7%
% Gated, R6 (CD44FITC, CD133 PE) (24 h incubation): 32.2%
% Total, R6 (CD44FITC, CD133 PE) (24 h incubation): 28.8%
% Gated, R7 Cancer Stem Cell (CSC) (CD44+CD133-) (24 h incubation): 22.6%
% Total, R7 Cancer Stem Cell (CSC) (CD44+CD133-) (24 h incubation): 20.3%
% Gated, R8 (CD44FITC, EpCAMefluor710) (24 h incubation): 4.94%
% Total, R8 (CD44FITC, EpCAMefluor710) (24 h incubation): 4.42%
% Gated, R9 EpCAM positive Cells (CD44FITC, EpCAMefluor710) (24 h incubation): 45.3%
% Total, R9 EpCAM positive Cells (CD44FITC, EpCAMefluor710) (24 h incubation): 40.6%
% Gated, R10 EpCAM positive Cells (CD44FITC, EpCAMefluor710) (24 h incubation): 47.4%
% Total, R10 EpCAM positive Cells (CD44FITC, EpCAMefluor710) (24 h incubation): 42.5%
% Gated, R11 (CD44FITC, EpCAMefluor710) (24 h incubation): 3.22%
% Total, R11 (CD44FITC, EpCAMefluor710) (24 h incubation): 2.88%
% Gated, R4 (CD44FITC, CD133 PE) (48 h incubation): 40.1%
% Total, R4 (CD44FITC, CD133 PE) (48 h incubation): 27.6%
% Gated, R5 (CD44FITC, CD133 PE) (48 h incubation): 7.5%
% Total, R5 (CD44FITC, CD133 PE) (48 h incubation): 5.16%
% Gated, R6 (CD44FITC, CD133 PE) (48 h incubation): 27.4%
% Total, R6 (CD44FITC, CD133 PE) (48 h incubation): 18.9%
% Gated, R7 Cancer Stem Cell (CSC) (CD44+CD133-) (48 h incubation): 25.6%
% Total, R7 Cancer Stem Cell (CSC) (CD44+CD133-) (48 h incubation): 17.6%
% Gated, R8 (CD44FITC, EpCAMefluor710) (48 h incubation): 24.4%
% Total, R8 (CD44FITC, EpCAMefluor710) (48 h incubation): 16.8%
% Gated, R9 EpCAM positive Cells (CD44FITC, EpCAMefluor710) (48 h incubation): 31.8%
% Total, R9 EpCAM positive Cells (CD44FITC, EpCAMefluor710) (48 h incubation): 21.9%
% Gated, R10 EpCAM positive Cells (CD44FITC, EpCAMefluor710) (48 h incubation): 23.5%
% Total, R10 EpCAM positive Cells (CD44FITC, EpCAMefluor710) (48 h incubation): 16.2%
% Gated, R11 (CD44FITC, EpCAMefluor710) (48 h incubation): 21.1%
% Total, R11 (CD44FITC, EpCAMefluor710) (48 h incubation): 14.5%
